US20260137696A1, “Compositions Comprising an Inhibitor of Galectin-3” (University of Liverpool, priority 2023, published 2026)

Experiments:
[1] = test system: Salmonella typhimurium strain TA98; experiment: Ames test (genotoxicity); format: cell-based
Method: (§1) Mutagenic potential of the compound of Formula I was assessed by Ames test in two Salmonella typhimurium strains TA98 and TA100 without and with metabolic activation (S9).
(§2) Effect of the compound inhibitors on genotoxicity was determined using the Salmonella typhimurium strains of TA 98 and TA 100 in the presence and absence of metabolic activation (S9). Each test concentration included the vehicle and positive controls. Briefly, the compounds were serially diluted in 24-well plates with or without the presence metabolic activation system (S9) and was incubated for 90 min at 37° C. in 250 rpm in a orbital shaking incubator. TA98 and TA100 were then introduced to the wells for 90 min. 50 μL aliquots from each well was dispensed into 384 well plates and incubated for 48 hrs at 37° C. in an incubator before positive wells were scored.

[2] = test system: Salmonella typhimurium strain TA100; experiment: Ames test (genotoxicity); format: cell-based
Method: as §1, §2

HUVEC cells = conditions: human, 24 h, 100 uM
Method: (§3) The compounds of Formula I and Formula II cytotoxicity in human colon cancer SW620 (FIG. 8A), vascular HUVEC (FIG. 8B) and human melanoma ACA19 (FIG. 9C) cells was assessed in the absence or presence of various concentrations of the compounds of Formula I and Formula II (the chemotherapeutic drug Etoposide, Etop, was also included as positive control) by Lactate dehydrogenase (LDH) release assay.
as §3, with “(ACA19+) cells, which” for “ACA19 (FIG. 9C) cells”
(§4) SW620 and ACA19+ cells (5×10^4 cells/ml) were seeded into 96-well plate in DMEM and incubated at […] 5% CO2 for 24 hr. HUVECs (1.0×10^5 cells/ml) was seeded in EBM medium and incubated for 24-36 hr until they formed a monolayer. Compound inhibitors at different concentrations were then introduced to the cells (10× lysis buffer was included as maximum LDH activity control) for 24 hr. The culture medium was transferred to a new plate and was mixed with equal volume of reaction mixture provided in the kit for 30 min at room temperature before the absorbance was measured at 490 nm (reference 680 nm) by a spectrophotometer.

ACA19 cells = conditions: human, 24 h, 100 uM
Method: as §3
as §3, with “(ACA19+) cells, which” for “ACA19 (FIG. 9C) cells”
as §4

SW620 cells = conditions: human, 24 h, 100 uM
Method: as §3
as §3, with “(ACA19+) cells, which” for “ACA19 (FIG. 9C) cells”
as §4

Compound | revertant colony count [1] | revertant colony count [2] | cytotoxicity (LDH release) (HUVEC cells) [%] | cytotoxicity (LDH release) (ACA19 cells) [%] | cytotoxicity (LDH release) (SW620 cells) [%]
Nc1ccc2cc3ccccc3cc2c1 [Formula 2AA, reference compound] | distinct increase | distinct increase |  |  | 
COc1cc([C@@H]2c3cc4c(cc3[C@@H](O[C@@H]3O[C@@H]5CO[C@@H](C)O[C@H]5[C@H](O)[C@H]3O)[C@H]3COC(=O)[C@H]23)OCO4)cc(OC)c1O [Etoposide] |  |  | ~100 | ~100 | ~100
